{
  "source": "ChEMBL document CHEMBL5154690",
  "about": "“Discovery of a tricyclic farnesoid X receptor agonist HEC96719, a clinical candidate for treatment of non-alcoholic steatohepatitis” (Eur J Med Chem, 2022)",
  "key": {"[1]": {"assay": "Volume of distribution at steady state in male Beagle dog at 1 mg/kg, iv measured by LC-MS/MS analysis", "type": "ADME, organism-based, Canis lupus familiaris", "conditions": "in vivo, read-out: Vdss"}, "Mus musculus [2]": {"test_system": "Mus musculus", "assay": "Anti-NASH activity against high fat (HF) diet-induced nonalcoholic steatohepatitis in leptin-deficient ob/ob mouse model assessed as reduction in serum TG level at 0.1 to 1 mg/kg, po administered once daily from week 5 to 10", "type": "functional, organism-based", "conditions": "dose 0.1-1 mg/kg"}, "[3]": {"assay": "Drug recovery in kidney of male Sprague-Dawley rat at 4.5 mg/kg, po administered as C14-lableled compound and assessed as radioactivity and measured at 6 hrs", "type": "ADME, organism-based", "conditions": "in vivo"}, "[4]": {"assay": "Drug recovery in kidney of male Sprague-Dawley rat at 4.5 mg/kg, po administered as C14-lableled compound and assessed as radioactivity and measured at 1 hr", "type": "ADME, organism-based", "conditions": "in vivo"}, "[5]": {"assay": "Drug recovery in skin of male Sprague-Dawley rat at 4.5 mg/kg, po administered as C14-lableled compound and assessed as radioactivity and measured at 24 hrs", "type": "ADME, organism-based, Skin of body", "conditions": "in vivo, BLD = below limit of detection"}, "[6]": {"assay": "Drug recovery in lung of male Sprague-Dawley rat at 4.5 mg/kg, po administered as C14-lableled compound and assessed as radioactivity and measured at 24 hrs", "type": "ADME, organism-based", "conditions": "in vivo, BLD = below limit of detection"}, "[7]": {"assay": "Drug recovery in stomach of male Sprague-Dawley rat at 4.5 mg/kg, po administered as C14-lableled compound and assessed as radioactivity and measured at 6 hrs", "type": "ADME, organism-based", "conditions": "in vivo"}, "[8]": {"biological_target": "T1, Bile acid receptor (Rattus norvegicus) (UniProt Q62735)", "T1 sequence (whole entry)": "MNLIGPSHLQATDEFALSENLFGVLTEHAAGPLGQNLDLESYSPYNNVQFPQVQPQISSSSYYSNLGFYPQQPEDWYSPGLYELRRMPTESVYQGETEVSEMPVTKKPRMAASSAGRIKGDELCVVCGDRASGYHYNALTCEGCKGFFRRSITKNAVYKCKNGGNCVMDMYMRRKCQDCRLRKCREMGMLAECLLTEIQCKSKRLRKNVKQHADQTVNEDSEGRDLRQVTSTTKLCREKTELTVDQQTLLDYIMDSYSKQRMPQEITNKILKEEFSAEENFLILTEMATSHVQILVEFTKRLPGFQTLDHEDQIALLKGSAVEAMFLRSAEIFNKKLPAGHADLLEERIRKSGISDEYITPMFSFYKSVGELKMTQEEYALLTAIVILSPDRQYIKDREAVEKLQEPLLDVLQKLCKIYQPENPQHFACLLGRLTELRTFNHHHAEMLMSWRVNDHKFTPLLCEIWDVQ", "assay": "In vivo activation of FXR in male Sprague-Dawley rat assessed as fold increase in FGF15 level at 5 mg/kg, po administered once daily for 14 days measured at 6 hrs by ELISA", "type": "functional, organism-based", "conditions": "time 14.0 day"}, "[9]": {"assay": "Drug recovery in plasma of male Sprague-Dawley rat at 4.5 mg/kg, po administered as C14-lableled compound and assessed as radioactivity and measured at 24 hrs", "type": "ADME, organism-based", "conditions": "in vivo, BLD = below limit of detection"}, "[10]": {"assay": "Drug recovery in heart of male Sprague-Dawley rat at 4.5 mg/kg, po administered as C14-lableled compound and assessed as radioactivity and measured at 0.25 hrs", "type": "ADME, organism-based", "conditions": "in vivo"}, "[11]": {"assay": "Drug recovery in liver of male Sprague-Dawley rat at 4.5 mg/kg, po administered as C14-lableled compound and assessed as radioactivity and measured at 6 hrs", "type": "ADME, organism-based", "conditions": "in vivo"}, "[12]": {"assay": "Drug recovery in stomach of male Sprague-Dawley rat at 4.5 mg/kg, po administered as C14-lableled compound and assessed as radioactivity and measured at 1 hr", "type": "ADME, organism-based", "conditions": "in vivo"}, "[13]": {"biological_target": "T1, Bile acid receptor (Rattus norvegicus)", "assay": "In vivo activation of FXR in male Sprague-Dawley rat assessed as fold increase in liver BSEP level at 5 mg/kg, po administered as single dose measured at 1 hr by RT-qPCR assay", "type": "functional, organism-based"}, "[14]": {"assay": "Volume of distribution at steady state in male C57BL/6 mouse at 2 mg/kg, iv measured by LC-MS/MS analysis", "type": "ADME, organism-based", "conditions": "in vivo, read-out: Vdss"}, "[15]": {"assay": "Drug recovery in pancreas of male Sprague-Dawley rat at 4.5 mg/kg, po administered as C14-lableled compound and assessed as radioactivity and measured at 1 hr", "type": "ADME, organism-based", "conditions": "in vivo"}, "[16]": {"assay": "Drug recovery in heart of male Sprague-Dawley rat at 4.5 mg/kg, po administered as C14-lableled compound and assessed as radioactivity and measured at 24 hrs", "type": "ADME, organism-based", "conditions": "in vivo, BLD = below limit of detection"}, "[17]": {"assay": "Drug recovery in spleen of male Sprague-Dawley rat at 4.5 mg/kg, po administered as C14-lableled compound and assessed as radioactivity and measured at 1 hr", "type": "ADME, organism-based", "conditions": "in vivo"}, "[18]": {"assay": "Ratio of drug level in pancreas to plasma in male Sprague-Dawley rat at 4.5 mg/kg, po administered as C14-lableled compound and measured at 0.25 to 6 hrs", "type": "ADME, organism-based", "conditions": "other tissue, time 0.25-6 hrs"}, "[19]": {"assay": "Ratio of drug level in kidney to plasma in male Sprague-Dawley rat at 4.5 mg/kg, po administered as C14-lableled compound and measured at 0.25 to 6 hrs", "type": "ADME, organism-based", "conditions": "other tissue, time 0.25-6 hrs"}, "[20]": {"biological_target": "T2, Peroxisome proliferator-activated receptor delta (Homo sapiens, UniProt Q03181)", "T2 sequence (Q03181 whole entry)": "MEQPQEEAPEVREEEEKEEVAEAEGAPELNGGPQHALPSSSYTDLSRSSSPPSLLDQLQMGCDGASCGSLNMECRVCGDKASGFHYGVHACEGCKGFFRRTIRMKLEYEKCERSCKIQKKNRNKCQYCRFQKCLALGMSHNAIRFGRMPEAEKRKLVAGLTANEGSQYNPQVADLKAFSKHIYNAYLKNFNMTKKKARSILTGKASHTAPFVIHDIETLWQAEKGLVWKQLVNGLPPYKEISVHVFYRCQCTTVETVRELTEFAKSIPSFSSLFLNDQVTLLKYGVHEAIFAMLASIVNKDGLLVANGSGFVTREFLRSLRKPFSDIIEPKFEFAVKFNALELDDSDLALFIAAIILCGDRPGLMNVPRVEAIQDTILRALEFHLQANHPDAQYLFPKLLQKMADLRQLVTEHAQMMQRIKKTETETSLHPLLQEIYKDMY", "assay": "Agonist activity at PPARdelta (unknown origin)"}, "[21]": {"assay": "Drug recovery in spleen of male Sprague-Dawley rat at 4.5 mg/kg, po administered as C14-lableled compound and assessed as radioactivity and measured at 0.25 hrs", "type": "ADME, organism-based", "conditions": "in vivo"}, "[22]": {"assay": "Clearance in male Sprague-Dawley rat at 1 mg/kg, iv measured by LC-MS/MS analysis", "type": "ADME, organism-based", "conditions": "in vivo"}, "Mus musculus [23]": {"test_system": "Mus musculus", "assay": "Anti-NASH activity against high fat (HF) diet-induced nonalcoholic steatohepatitis in leptin-deficient ob/ob mouse model assessed as reduction in NASH activity score (NAS) at 3 mg/kg, po administered once daily from week 5 to 10", "type": "functional, organism-based"}, "[24]": {"assay": "Drug recovery in plasma of male Sprague-Dawley rat at 4.5 mg/kg, po administered as C14-lableled compound and assessed as radioactivity and measured at 1 hr", "type": "ADME, organism-based", "conditions": "in vivo"}, "[25]": {"assay": "Mutagenecity in Salmonella typhimurium TA100 measured by Ames test", "type": "toxicity", "conditions": "salmonella enterica subsp. enterica serovar typhimurium"}, "[26]": {"assay": "Drug recovery in stomach of male Sprague-Dawley rat at 4.5 mg/kg, po administered as C14-lableled compound and assessed as radioactivity and measured at 0.25 hrs", "type": "ADME, organism-based", "conditions": "in vivo"}},
  "note": "Active and inactive are the calls of the source. The rule behind the calls is not given here.",
  "data": [
    {"smiles": "O=C(O)c1ccc2c(c1)Oc1ccc(OCc3c(-c4c(Cl)cccc4Cl)noc3C3CC3)nc1C1(CC1)C2", "values": [
      {"measurement": "Vd", "setting": "[1]", "result": 1.12, "unit": "L/kg"},
      {"measurement": "Activity", "setting": "Mus musculus [2]", "result": "Active"},
      {"measurement": "Drug recovery", "setting": "[3]", "result": 67.8, "unit": "ngequiv/g"},
      {"measurement": "Drug recovery", "setting": "[4]", "result": 457, "unit": "ngequiv/g"},
      {"measurement": "Drug recovery", "setting": "[5]", "result": "Bld"},
      {"measurement": "Drug recovery", "setting": "[6]", "result": "Bld"},
      {"measurement": "Drug recovery", "setting": "[7]", "result": 188, "unit": "ngequiv/g"},
      {"measurement": "fold change (FC)", "setting": "[8]", "result": 18},
      {"measurement": "Drug recovery", "setting": "[9]", "result": "Bld"},
      {"measurement": "Drug recovery", "setting": "[10]", "result": 208, "unit": "ngequiv/g"},
      {"measurement": "Drug recovery", "setting": "[11]", "result": 521, "unit": "ngequiv/g"},
      {"measurement": "Drug recovery", "setting": "[12]", "result": 1536, "unit": "ngequiv/g"},
      {"measurement": "fold change (FC)", "setting": "[13]", "result": 2},
      {"measurement": "Vd", "setting": "[14]", "result": 3.83, "unit": "L/kg"},
      {"measurement": "Drug recovery", "setting": "[15]", "result": 229, "unit": "ngequiv/g"},
      {"measurement": "Drug recovery", "setting": "[16]", "result": "Bld"},
      {"measurement": "Drug recovery", "setting": "[17]", "result": 104, "unit": "ngequiv/g"},
      {"measurement": "Ratio", "setting": "[18]", "result": 0.8},
      {"measurement": "Ratio", "setting": "[19]", "result": 1.8},
      {"measurement": "EC50", "setting": "[20]", "result": "> 10", "unit": "µM"},
      {"measurement": "Drug recovery", "setting": "[21]", "result": 192, "unit": "ngequiv/g"},
      {"measurement": "clearance", "setting": "[22]", "result": 35.3, "unit": "mL/min/kg"},
      {"measurement": "Activity", "setting": "Mus musculus [23]", "result": "Active"},
      {"measurement": "Drug recovery", "setting": "[24]", "result": 305, "unit": "ngequiv/g"},
      {"measurement": "Activity", "setting": "[25]", "result": "Non-Toxic"},
      {"measurement": "Drug recovery", "setting": "[26]", "result": 3213, "unit": "ngequiv/g"}
    ]}
  ]
}
